Results from patent US9913827B2, “Bendamustine derivatives and methods of using same” (IGNYTA, INC., priority 2012, dated 2018).
Where two headings read alike, the source gives them in different places. Marks after values point to notes of the source that are not given here.

Assays:
[1] = Rat plasma pharmacokinetics at 3 mg-eq/kg i.v.; settings: solution formulation 3 mg-eq/kg i.v.
[2] = test system: H460 tumor cells (large cell lung cancer); experiment: Nude mouse H460 tumor efficacy study; assay type: in vivo, nu/nu mouse
Protocol: 2×10^6 cells/100 ul in the mix of medium and Matrigel (1:1 ratio) solution was injected into right back flank of each nu/nu mouse. The implanted mice were monitored and measured with electric calipers. The study started when the tumors reached ˜150 mm^3 in size. The mice were measured and randomized into 9 groups with 10 mice in each group per the below table: […]

[3] = test system: RPMI 8226 (Human Plasmacytoma, Myeloma B Cells); assay type: in vivo, CB.17 SCID female mice; settings: day 46
Protocol: RPMI 8226 (Human Plasmacytoma, Myeloma B Cells) ATCC #CCL-155;
80 CB.17 SCID female mice, 4-6 weeks old, 16-20 grams, obtained from Harlan animal breeding center
Cells (originated from ATCC) were cultured on RPMI medium. Cell suspension was centrifuged and resuspended in 50% Matrigel/HBSS to a final concentration of 7×10^7 cells/ml. The suspension was implanted s.c. in the right flank of the anesthetized mouse at a volume of 100 μl.
Seven ml saline were added to the original vial containing 3.5 mg powder resulting in 0.5 mg/ml. Three ml of this solution were added to 27 ml saline to receive 0.05 mg/ml concentration.
bendamustine preparation: 13.5 mg was dissolved in 3.6 ml of 1:1 mixture of 0.9% saline/5% mannitol just before the treatment. 1.05 ml of this solution was added to 0.95 ml diluent for 2 mg/ml solution.
1.05 ml of this solution was added to 0.95 ml diluent for 2 mg/ml solution.
On day 21, mice were sorted by the optimal average tumor volume (˜150 mm^3) and were allocated into eight groups of 9 mice each.
[formula] The analysis of weight gain and tumor volume progression was made using one-way ANOVA followed by Tukey post-hoc comparisons. Results

[4] = Tumor efficacy PK group, H-460 tumor-bearing mice: tumor and plasma levels; settings: for Ester level in Plasma at 1 hour / Ester level in Tumor at 1 hour: 80 mg/kg i.v.
Protocol: The formulations were administrated as 100 μL dose volume through tail vein injection within 30 minutes after compounds were formulated. All the mice were weighed and tumors measured twice weekly. At the last day of the study, plasma, tumor, lung, liver, spleen, left kidney, brain and legs were collected and quickly frozen for further analysis two hours post-dosing.
(§1) A portion of the tumor bearing mice were dosed as a satellite PK group. Each group was dosed as described for the tumor efficacy group, however the PK group was euthanized and tissue samples collected at 1, 3 and 6 hours post dosing on day 2. The tissues collected included blood, lung, liver and tumor. Samples were analyzed for bendamustine HCl and the corresponding ester analogue as described in the LC-MS protocol section.
(§2) Plasma and other tissues were prepared for high performance liquid chromatography (HPLC)/mass spectrometric analysis according to a standard protocol following protein precipitation with acetonitrile containing an internal standard. The samples were then analyzed for both bendamustine HCl and bendamustine esters of the invention and alprenolol (internal standard) via HPLC coupled with tandem mass spectrometry. Tissue samples were homogenized in sodium phosphate buffer and the value obtained from the assay was multiplied by 3 to correct for dilution during processing.

[5] = Tumor efficacy PK group, MB-231 tumor-bearing mice: tumor and plasma levels; settings: for Ester level in Plasma at 1 hour / Ester level in Tumor at 1 hour: 80 mg/kg i.v.
Protocol: as §1, §2

MDA-MB-231 xenografts = experiment: Nude mouse MDA-MB-231 tumor efficacy study; assay type: in vivo, athymic nude mice
Protocol: Charles River Labs athymic nude mice were subcutaneous injected with 5×10^6 human tumor cells in matrigel. The tumor volume was monitored until an average tumor size of ˜150 mm^3 was obtained in the mouse population The mice were then randomized in to one of the nine treatment groups (summarized in table below) with a population of 10 mice per group (n=10). Each of the formulations was dosed at 100 μL fixed volume via tail vein injection on day 1 and day 2 of the study. Mice were weighed and the tumor volume measured every 3-4 days for 3 weeks of the study duration.

MB-231 (HBC) = experiment: MTS cell assay (cell proliferation), MB-231; assay type: cell-based; settings: Homo sapiens, 72 hours
Protocol: Charles River Labs athymic nude mice bearing MDA-MB-231 breast carcinoma cell line subcutaneous xenografts (5×10^6 cells in matrigel) were sacrificed to make a tumor isolate. Using sterile instruments and working aseptically, the tumors were removed from the euthanized animal. The tumor was placed in a 50 mL sterile conical tube and 5 mL of trypsin was added. The tumor was cut into small pieces and incubated at 37° C. for 30 minutes. After incubation, a cell strainer was placed on a second, sterile, 50 mL conical tube and the contents of the first tube were placed in the cell strainer. The tissue was forced through the filter using the flat end of a syringe plunger. The cell strainer was washed with 5 mLs of media containing FBS. The cells were spun down and the supernatant was discarded. The cells were resuspended in 20 mLs of complete media containing P/S and placed in a 75 cm flask.
(§3) Human carcinoma cells (2,000 cells/well) were incubated with the desired concentration of the test molecule (0-200 μM) for 72 hours. The cells were then incubated with MTS solution (Promega) for 1-2 hours, and the compounds effects on cell proliferation was determined by measuring the absorbance at 490 nm. Cell growth was expressed as a percent of the appropriate control (placebo). […] All data reported was the mean±SE of three independent experiments.

H-460 (NSCLC) = experiment: MTS cell assay (cell proliferation), H-460; assay type: cell-based; settings: Homo sapiens, NCI-H460, 72 hours
Protocol: as §3

[6] = Solution, 37.5 mg/kg i.v. day 1 and 2
[7] = HSA nanoparticle, 80 mg/kg i.v.
[8] = HSA nanoparticle, 80 mg/kg i.v. day 1 and 2
[9] = Solution, 80 mg/kg i.v. day 1 and 2

CCCCCC(CCCC)OC(=O)CCCc1nc2cc(N(CCCl)CCCl)ccc2n1C (stereo not shown) [5-decanyl ester, 4-{5-[Bis-(chloroethyl)-amino]-1-methyl-1H-benzimidazol-2-yl}butyric acid 5-decyl ester]
Plasma levels of the dosed Ester [1]: All < MQL

Cn1c(CCCC(=O)O)nc2cc(N(CCCl)CCCl)ccc21 [Bendamustine, 4-[5-[bis(2-chloroethyl)amino]-1-methylbenzimidazol-2-yl]butanoic acid]
% Morbidity ([2]; Solution, 37.5 mg/kg i.v.): 0/0% | % Mortality ([2]; Solution, 37.5 mg/kg i.v.): 0/0% | % TGI ([3]; 20 mg/kg iv on days 1 and 2): 66*** % | No. of CR ([3]; 20 mg/kg iv on days 1 and 2): 0 | No. of PR ([3]; 20 mg/kg iv on days 1 and 2): 0 | Δ mean tumor volume, (mean ± se) ([3]; 20 mg/kg iv on days 1 and 2): 205 ± 44 | No. of CR ([3]; 37.5 mg/kg iv on days 1 and 2): 0 | No. of PR ([3]; 37.5 mg/kg iv on days 1 and 2): 0 | Δ mean tumor volume, (mean ± se) ([3]; 37.5 mg/kg iv on days 1 and 2): 113 ± 23 | % TGI ([3]; 37.5 mg/kg iv on days 1 and 2, 37.5 mg/kg): 81% | BM1 level in Plasma at 1 hour ([4]; Solution, 37.5 mg/kg i.v.): 1550 ng/mL | BM1 level in Tumor at 1 hour ([4]; Solution, 37.5 mg/kg i.v.): 1472 ng/mL | BM1 level in Plasma at 1 hour ([5]; Solution, 37.5 mg/kg i.v.): 906 ng/mL | BM1 level in Tumor at 1 hour ([5]; Solution, 37.5 mg/kg i.v.): 558 ng/mL | % Morbidity (MDA-MB-231 xenografts; [6]): 10% | % Mortality (MDA-MB-231 xenografts; [6]): 0% | % Tumor Inh. (MDA-MB-231 xenografts; [6]): 77%

Cn1c(CCCC(=O)OC2CCCCC2)nc2cc(N(CCCl)CCCl)ccc21 [Cy-hexyl bendamustine ester, 4-{5-[Bis-(chloroethyl)-amino]-1-methyl-1H-benzimidazol-2-yl}butyric acid cyclohexyl ester]
Plasma levels of the dosed Ester [1]: All < MQL

CCCCCCCCOC(=O)CCCc1nc2cc(N(CCCl)CCCl)ccc2n1C [bendamustine C8 ester, 4-{5-[Bis-(chloroethyl)-amino]-1-methyl-1H-benzimidazol-2-yl}butyric aid octyl ester]
IC50 (MB-231 (HBC)): 53.1 µM | IC50 (H-460 (NSCLC)): 49 µM

CCCCCCCCCCCCCCOC(=O)CCCc1nc2cc(N(CCCl)CCCl)ccc2n1C [bendamustine C14 ester, 4-{5-[Bis-(chloroethyl)-amino]-1-methyl-1H-benzimidazol-2-yl}butyric acid tetradecyl ester]
% Morbidity [2, 7]: 10% | % Mortality [2, 7]: 0% | % Tumor Inh. [2, 7]: 40% | % Morbidity ([2]; Solution, 80 mg/kg i.v.): 100% | % Mortality ([2]; Solution, 80 mg/kg i.v.): 40% | % Tumor Inh. ([2]; Solution, 80 mg/kg i.v.): 81% | Ester level in Plasma at 1 hour ([4]; HSA nanoparticle): 3648 ng/mL | Ester level in Tumor at 1 hour ([4]; HSA nanoparticle): 4570 ng/mL | Ester level in Plasma at 1 hour ([4]; Solution): 32233 ng/mL | Ester level in Tumor at 1 hour ([4]; Solution): 8570 ng/mL | Ester level in Plasma at 1 hour ([5]; HSA nanoparticle): 5727 ng/mL | Ester level in Tumor at 1 hour ([5]; HSA nanoparticle): 10430 ng/mL | Ester level in Plasma at 1 hour ([5]; Solution): 14 ng/mL | Ester level in Tumor at 1 hour ([5]; Solution): 396 ng/mL | % Morbidity (MDA-MB-231 xenografts; [8]): 60% | % Mortality (MDA-MB-231 xenografts; [8]): 0% | % Morbidity (MDA-MB-231 xenografts; [9]): 40% | % Mortality (MDA-MB-231 xenografts; [9]): 0% | % Tumor Inh. (MDA-MB-231 xenografts; [9]): 90%
